According to patent US9290511B2, “Thieno-pyrimidines, useful as potassium channel inhibitors” (XENTION LIMITED, priority 2011, dated 2016):

The compounds below were run against T1, Kir3.1/3.4 (Rattus norvegicus, UniProt P48548+P63251) (assay: Kir3.1/3.4 Electrophysiology Method (manual whole-cell patch clamp)). Settings: Electrophysiology Method (TABLE 1).
T1 construct: expressed in transfected cells
T1 sequence (P63251 1-501): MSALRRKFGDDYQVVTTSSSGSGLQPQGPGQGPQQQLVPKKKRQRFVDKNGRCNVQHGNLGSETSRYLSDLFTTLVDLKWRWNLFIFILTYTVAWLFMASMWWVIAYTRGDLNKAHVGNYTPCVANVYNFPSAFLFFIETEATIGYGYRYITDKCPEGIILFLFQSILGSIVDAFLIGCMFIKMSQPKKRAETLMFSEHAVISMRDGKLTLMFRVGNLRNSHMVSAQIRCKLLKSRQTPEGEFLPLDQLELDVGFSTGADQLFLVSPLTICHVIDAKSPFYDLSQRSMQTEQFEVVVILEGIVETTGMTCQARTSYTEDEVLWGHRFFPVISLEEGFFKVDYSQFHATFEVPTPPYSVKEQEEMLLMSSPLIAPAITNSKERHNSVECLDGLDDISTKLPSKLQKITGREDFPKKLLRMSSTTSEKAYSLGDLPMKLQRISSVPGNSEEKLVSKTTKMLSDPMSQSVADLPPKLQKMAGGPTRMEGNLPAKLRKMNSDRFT
T1 sequence (P48548 1-419): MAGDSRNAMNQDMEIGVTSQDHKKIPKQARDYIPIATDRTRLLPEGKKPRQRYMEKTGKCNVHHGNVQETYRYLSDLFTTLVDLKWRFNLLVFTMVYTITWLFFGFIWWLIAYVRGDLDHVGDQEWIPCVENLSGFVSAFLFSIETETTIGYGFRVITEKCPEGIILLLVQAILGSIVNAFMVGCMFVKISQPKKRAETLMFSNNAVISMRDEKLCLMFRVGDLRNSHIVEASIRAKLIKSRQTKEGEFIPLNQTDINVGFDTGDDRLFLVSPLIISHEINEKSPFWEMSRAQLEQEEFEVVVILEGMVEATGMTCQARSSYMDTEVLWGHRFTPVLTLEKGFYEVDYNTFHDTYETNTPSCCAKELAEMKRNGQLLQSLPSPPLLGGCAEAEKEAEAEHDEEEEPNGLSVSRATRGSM
Type: cell-based
Procedure: Compound activity against the recombinant G-protein activated inward rectifier current encoded by the heterotetramer Kir3.1/3.4 was assessed using manual whole-cell patch technique. The heterotetramer forms the pore-forming channel that conducts the acetylcholine/adenosine-activated potassium current in the heart.
For whole-cell patch-clamp studies, cells (Human Embryonic Kidney 293 stably transfected with rat Kir3.1/3.4) were seeded onto glass coverslips before recordings were made. Cells were seeded in sterile 30 mm Petri dishes at a density to enable isolated cells to be selected for patch clamp experiments. The dishes were stored in a humidified, gassed (5% CO2) incubator at 37° C. until use.
Whole-cell patch-clamp recordings of membrane currents were made following gigaohm seal formation between the patch electrode and the cell using HEKA EPC-9/10 amplifiers controlled by Pulse Software (Ver8.5x/8.6×/8.7×, HEKA, Germany). Coverslips seeded with cells were placed in a recording chamber mounted on the stage of an inverted microscope. During the experiment, the cell of interest was continuously superfused with bather solution delivered via a cannula placed in close proximity to the cell to enable control of the extracellular solution environment. Only those cells with a current <−500 pA (current at −140 mV) were used for experiments. During experiments, series resistance was compensated by a minimum of 70%.
Electrophysiology voltage-step protocols and analysis of data were performed as follows. Data was sampled at 5 kHz, and filtered with a −3 dB bandwidth of 2.5 kHz. Cells were held at a voltage of −60 mV. Currents were evoked by a depolarising voltage step to +60 mV (100 ms) before a ramp-repolarisation (0.4 V·s^−1) to −140 mV (100 ms) before returning to −60 mV. The command waveform was repeatedly applied every 10 s throughout the experiment. Mean currents during 1-99% of the time at −140 mV were analysed using Pulsefit software (v8.x, HEKA, Germany). The voltage protocol was repeatedly applied to achieve a stable current baseline in bather before the test substance was superfused via the cannula in close proximity to the cell under investigation. The test substance was allowed to equilibrate during which time voltage protocol was repeatedly applied and recorded. On reaching steady-state inhibition, the cell was superfused with an identical bather solution containing zero external potassium chloride (replaced by equimolar NaCl). The identical current measurement was made in the absence of potassium to assess the passive leak at −140 mV. The leak current was subtracted from the control and steady-state drug current values. The percentage inhibition of the leak-subtracted current in the presence of test substance was calculated relative to the control leak-subtracted pre-drug value. Internal patch-pipette solution contained in mM: 110 KCl, 20 NaCl, 0.9 GTPγS, 5 Mg-ATP, 5 EGTA, 10 HEPES, pH7.2 corrected with KOH. The external superfusate composition in mM was: 150 (or 160) NaCl, 10 (or 0) KCl, 3 CaCl2, 1 MgCl, 10 HEPES, pH 7.4 corrected with NaOH.

IC50	Structure (SMILES)
< 0.5 µM	COCCN(CCOC)CC1CCN(c2ncnc3scc(-c4ccccc4)c23)CC1 [Example 53, 2-methoxy-N-(2-methoxyethyl)-N-[[1-(5-phenylthieno[2,3-d]pyrimidin-4-yl)-4-piperidyl]methyl]ethanamine]
< 0.5 µM	OCC1(NCC2CCN(c3ncnc4scc(-c5ccccc5)c34)CC2)CCCC1 [Example 54, [1-[[1-(5-phenylthieno[2,3-d]pyrimidin-4-yl)-4-piperidyl]methylamino]cyclopentyl]methanol]
0.5 to 3 µM	OC1CCCN(CC2CCN(c3ncnc4scc(-c5ccccc5)c34)CC2)C1 (stereo not drawn) [Example 55, 1-[[1-(5-phenylthieno[2,3-d]pyrimidin-4-yl)-4-piperidyl]methyl]piperidin-3-ol]
< 0.5 µM	c1ccc(-c2csc3ncnc(N4CCC(CN5CCOC(c6ccccc6)C5)CC4)c23)cc1 (stereo not drawn) [Example 56, 2-phenyl-4-[[1-(5-phenylthieno[2,3-d]pyrimidin-4-yl)-4-piperidyl]methyl]morpholine]
< 0.5 µM	OCC(Cc1ccccc1)NCC1CCN(c2ncnc3scc(-c4ccccc4)c23)CC1 (stereo not drawn) [Example 57, 3-phenyl-2-[[1-(5-phenylthieno[2,3-d]pyrimidin-4-yl)-4-piperidyl]methylamino]propan-1-ol]
< 0.5 µM	CN1CCCC1CCNCC1CCN(c2ncnc3scc(-c4ccccc4)c23)CC1 (stereo not drawn) [Example 58, 2-(1-methylpyrrolidin-2-yl)-N—[[1-(5-phenylthieno[2,3-d]pyrimidin-4-yl)-4-piperidyl]methyl]ethanamine]
< 0.5 µM	CC(C)(CNCC1CCN(c2ncnc3scc(-c4ccccc4)c23)CC1)N1CCOCC1 [Example 59, 2-methyl-2-morpholino-N-[[1-(5-phenylthieno[2,3-d]pyrimidin-4-yl)-4-piperidyl]methyl]propan-1-amine]
< 0.5 µM	CN(C)C1CCCN(CC2CCN(c3ncnc4scc(-c5ccccc5)c34)CC2)C1 (stereo not drawn) [Example 60, N,N-dimethyl-1-[[1-(5-phenylthieno[2,3-d]pyrimidin-4-yl)-4-piperidyl]methyl]piperidin-3-amine]
< 0.5 µM	c1ccc(-c2csc3ncnc(N4CCC(CNCc5ccco5)CC4)c23)cc1 [Example 61, 1-(2-furyl)-N-[[1-(5-phenylthieno[2,3-d]pyrimidin-4-yl)-4-piperidyl]methyl]methanamine]
< 0.5 µM	CC(C)N(CCNCC1CCN(c2ncnc3scc(-c4ccccc4)c23)CC1)C(C)C [Example 62, N′,N′-diisopropyl-N-[[1-(5-phenylthieno[2,3-d]pyrimidin-4-yl)-4-piperidyl]methyl]ethane-1,2-diamine]
< 0.5 µM	NCCNCC1CCN(c2ncnc3scc(-c4ccccc4)c23)CC1 [Example 63, N′-[[1-(5-phenylthieno[2,3-d]pyrimidin-4-yl)-4-piperidyl]methyl]ethane-1,2-diamine]
< 0.5 µM	c1ccc(-c2csc3ncnc(N4CCC(CNC5CCC5)CC4)c23)cc1 [Example 64, N-[[1-(5-phenylthieno[2,3-d]pyrimidin-4-yl)-4-piperidyl]methyl]cyclobutanamine]
< 0.5 µM	OCC1CCCN1CC1CCN(c2ncnc3scc(-c4ccccc4)c23)CC1 (stereo not drawn) [Example 65, [1-[[1-(5-phenylthieno[2,3-d]pyrimidin-4-yl)-4-piperidyl]methyl]pyrrolidin-2-yl]methanol]
< 0.5 µM	c1ccc(-c2csc3ncnc(N4CCC(CNCc5ccccn5)CC4)c23)cc1 [Example 66, N-[[1-(5-phenylthieno[2,3-d]pyrimidin-4-yl)-4-piperidyl]methyl]-1-(2-pyridyl)methanamine]
< 0.5 µM	O[C@H]1CN(CC2CCN(c3ncnc4scc(-c5ccccc5)c34)CC2)C[C@@H]1N1CCCC1 [Example 67, (3S,4S)-1-[[1-(5-phenylthieno[2,3-d]pyrimidin-4-yl)-4-piperidyl]methyl]-4-pyrrolidin-1-yl-pyrrolidin-3-ol]
< 0.5 µM	COC1CCN(CC2CCN(c3ncnc4scc(-c5ccccc5)c34)CC2)C1 (stereo not drawn) [Example 68, 4-[4-[(3-methoxypyrrolidin-1-yl)methyl]-1-piperidyl]-5-phenyl-thieno[2,3-d]pyrimidine]
< 0.5 µM	c1ccc(-c2csc3ncnc(N4CCC(CNCc5cccs5)CC4)c23)cc1 [Example 69, N-[[1-(5-phenylthieno[2,3-d]pyrimidin-4-yl)-4-piperidyl]methyl]-1-(2-thienyl)methanamine]
< 0.5 µM	Fc1ccc(C2CCN(CC3CCN(c4ncnc5scc(-c6ccccc6)c45)CC3)C2)cc1 (stereo not drawn) [Example 70, 4-[4-[[3-(4-fluorophenyl)pyrrolidin-1-yl]methyl]-1-piperidyl]-5-phenyl-thieno[2,3-d]pyrimidine]
< 0.5 µM	CN(C)CCN(C)CC1CCN(c2ncnc3scc(-c4ccccc4)c23)CC1 [Example 71, N,N,N′-trimethyl-N′-[[1-(5-phenylthieno[2,3-d]pyrimidin-4-yl)-4-piperidyl]methyl]ethane-1,2-diamine]
< 0.5 µM	CN(C)CCCN(C)CC1CCN(c2ncnc3scc(-c4ccccc4)c23)CC1 [Example 72, N,N,N′-trimethyl-N′-[[1-(5-phenylthieno[2,3-d]pyrimidin-4-yl)-4-piperidyl]methyl]propane-1,3-diamine]
0.5 to 3 µM	c1ccc(-c2csc3ncnc(N4CCC(CN5CCC5)CC4)c23)cc1 [Example 73, 4-[4-(azetidin-1-ylmethyl)-1-piperidyl]-5-phenyl-thieno[2,3-d]pyrimidine]
< 0.5 µM	c1ccc(-c2csc3ncnc(N4CCC(CNC5CC5)CC4)c23)cc1 [Example 74, N-[[1-(5-phenylthieno[2,3-d]pyrimidin-4-yl)-4-piperidyl]methyl]cyclopropanamine]
< 0.5 µM	CN(C)C1CCN(CC2CCN(c3ncnc4scc(-c5ccccc5)c34)CC2)CC1 [Example 75, N,N-dimethyl-1-[[1-(5-phenylthieno[2,3-d]pyrimidin-4-yl)-4-piperidyl]methyl]piperidin-4-amine]
< 0.5 µM	c1ccc(-c2csc3ncnc(N4CCC(CN5CCC(N6CCCC6)C5)CC4)c23)cc1 (stereo not drawn) [Example 76, 5-phenyl-4-[4-[(3-pyrrolidin-1-ylpyrrolidin-1-yl)methyl]-1-piperidyl]thieno[2,3-d]pyrimidine]
0.5 to 3 µM	Fc1ccc(-c2csc3ncnc(N4CCC(CNC5CC5)CC4)c23)cc1 [Example 77, N-[[1-[5-(4-fluorophenyl)thieno[2,3-d]pyrimidin-4-yl]-4-piperidyl]methyl]cyclopropanamine]
0.5 to 3 µM	Fc1ccc(-c2csc3ncnc(N4CCC(CNC5CCC5)CC4)c23)cc1 [Example 78, N-[[1-[5-(4-fluorophenyl)thieno[2,3-d]pyrimidin-4-yl]-4-piperidyl]methyl]cyclobutanamine]
< 0.5 µM	CN(C)C1CCCN(CC2CCN(c3ncnc4scc(-c5ccc(F)cc5)c34)CC2)C1 (stereo not drawn) [Example 79, 1-[[1-[5-(4-fluorophenyl)thieno[2,3-d]pyrimidin-4-yl]-4-piperidyl]methyl]-N,N-dimethyl-piperidin-3-amine]
